Here are results for three molecules from patent US5877202A, “Indole derivatives useful to treat estrogen-related neoplasms and disorders” (priority 1996, dated 1999).

“And” between values parts separate entries of the source, which are not always exact repeats. Equal entries are not always repeated.

Data set [1] concerns hormone-dependent breast cancer. As to conditions: cited from earlier work.
The next data set has as its system GAPDH mRNA. Put plainly: GAPDH mRNA levels in treated MCF-7 human breast tumor cells (positive control probe).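 Further: Phosphoimager intensity of radioactive mRNA bands.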 Type of data set: cell-based. As to conditions: 30 μM, 24 hr. As to the method:
(§1) After treatment with 30 μM drug for 24 hr, total RNA is isolated according to the guanidinium isothiocyanate method using an RNA preparation kit from 5 Prime-3 Prime, Inc., following the manufacturer's instructions. The RNA is separated by formaldehyde gel electrophoresis and transferred to a nylon membrane.

In a further data set the target is T1, estrogen receptors (Homo sapiens, UniProt P03372).
T1 construct: estrogen receptor extracted from MCF-7 human breast tumor cells; endogenous in cells; host or cells: MCF-7 human breast cancer cells (nuclear extract, cytosol or whole cell extract)
T1 sequence (P03372 1-595): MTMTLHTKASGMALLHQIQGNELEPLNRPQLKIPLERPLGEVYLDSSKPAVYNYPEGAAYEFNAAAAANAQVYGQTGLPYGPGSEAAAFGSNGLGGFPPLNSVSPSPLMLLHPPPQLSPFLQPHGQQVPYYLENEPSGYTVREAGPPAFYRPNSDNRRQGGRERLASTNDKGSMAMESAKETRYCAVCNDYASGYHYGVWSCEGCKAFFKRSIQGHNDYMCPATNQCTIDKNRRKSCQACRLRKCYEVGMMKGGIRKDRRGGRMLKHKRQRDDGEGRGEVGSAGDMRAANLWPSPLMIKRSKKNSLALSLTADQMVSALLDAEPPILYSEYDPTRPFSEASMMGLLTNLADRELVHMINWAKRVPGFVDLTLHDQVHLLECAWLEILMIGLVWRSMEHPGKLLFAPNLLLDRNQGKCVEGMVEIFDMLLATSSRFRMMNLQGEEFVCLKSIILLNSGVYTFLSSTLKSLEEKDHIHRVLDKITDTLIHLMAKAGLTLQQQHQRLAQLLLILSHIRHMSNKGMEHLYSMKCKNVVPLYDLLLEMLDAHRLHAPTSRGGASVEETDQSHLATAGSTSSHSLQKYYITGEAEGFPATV
Put plainly: Quantification of estrogen receptors in nuclear and whole cell extracts (ER-EIA monoclonal kit), Table 1. The class given is cell-based, human (MCF-7 human breast cancer cells). As to conditions: estrogen receptors in nuclear extracts. As to the method: (§2) Monolayers of MCF-7 human breast cancer cells are rinsed once with HBSS and scraped off culture dishes into 15 ml conical tubes with 5 ml HBSS. The cells are sedimented by centrifugation at 250×g for five minutes, suspended in 1 ml HBSS and sedimented by centrifugation at 2000 rpm in a tabletop centrifuge for five minutes in a 1.5 ml microfuge tube. Two PCV of a solution of a lysis buffer (25 mM HEPES, pH 7.8, 50 mM KCl, 0.5% Nonidet P 40, 2 mM dithiothreitol, 0.2 mM phenylmethylsulfonyl fluoride, 0.05 mg/ml leupeptin, 0.05 mg/ml aprotinin, 0.0025 mg/ml pepstatin, 0.005 mg/ml antipain) are added and cells are kept on ice for 15 minutes. Lysed cells are centrifuged for 3 minutes at 10,000×g, supernatant decanted, and kept as the cytosol fraction. Pellets are suspended in two PCV of extraction buffer (25 mM HEPES, pH 7.8, 500 mM KCl, 10% glycerol, 2 mM dithiothreitol and the above protease inhibitors), mixed for 20 minutes by inversion at 4 degrees C. and centrifuged at 10,000×g for 20 minutes. The supernatant is decanted and saved as nuclear extract. Both the nuclear extract and the cytosol are dialyzed for two hours against dialysis buffer (25 mM HEPES, pH 7.8, 50 mM KCl, 10% glycerol, 2 mM dithiothreitol and the above protease inhibitors). Nuclear and cytosol fractions are stored frozen at -80 degrees C. until used for mobility shift assays or determination of estrogen receptor content.
Whole cell extracts of tumor cells are prepared by the method of Reese and Katzenellenbogen, Nuc. Acids Res., 19: 6595-6602 (1991), with some modifications. Cell monolayers are rinsed once with HBSS, then scraped into HBSS and sedimented by centrifugation (5 min., 250×g). After resuspending in 1 mL HBSS, the cells are again sedimented at 250×g for 5 min at 4° C. The cell pellet is resuspended in lysis/extract buffer containing 20 mM Tris, pH 7.5, 10% glycerol (v/v), 0.5M sodium chloride and 0.5% NP-40 (v/v) and incubated on ice for 25 minutes, then the supernatants are dialyzed against 25 mM HEPES, pH 7.8, 10% glycerol (v/v), 0.5 mM dithiothreitol and 50 mM potassium chloride for 2 hours at 4° C. Both the lysis/extraction and the dialysis buffers contain protease inhibitors which included 0.5 mM phenylmethylsulfonylfluoride, 0.05 mg/mL leupeptin, 0.05 mg/mL aprotinin, 0.00-25 mg/mL pepstatin, and 0.005 mg/mL antipain. Dialyzed whole cell extracts are stored in aliquots at -80° C. until used.
The protein concentration for nucleus and cytosol fractions are determined with a BIO-RAD kit, according to the manufacturer's instructions.
Estrogen receptor levels in nuclear and whole cell extracts of tumor cells were quanitated using the ER-EIA monoclonal kit manufactured by Abbott Laboratories (Diagnostic Division) according to the kit instructions.
receptors in nuclear extracts.
.dagger.WCE refers to IC50 value for estrogen receptors in whole cel
A slash dividing two numbers indicates the results of two separate

In data set [2] the target is T2, estrogen receptor binding to an estrogen response element (Homo sapiens, UniProt P03372).
T2 construct: estrogen receptor extracted from MCF-7 human breast tumor cells; endogenous in cells; host or cells: MCF-7 human breast cancer cells (nuclear extract, cytosol or whole cell extract)
T2 sequence (P03372 1-595): T1 sequence (P03372 1-595)
Briefly: Inhibition of estrogen receptor binding to an estrogen response element in DNA mobility shift assays. The class given is biochemical, human (nuclear extract of MCF-7 human breast cancer cells). As to the method: as §2
Briefly, to each reaction tube was added 0.01 mg nuclear extract, 2 μg poly dIdC, 50 mM NaCl, 1 mM dithiothreitol and 10 mM Tris, pH 7.5 in a total volume of 0.01 ml and the mixture was kept at room temperature for 10 minutes. A ^32 P-labelled estrogen response element [ERE]

The next data set relates to estrogen receptor mRNA. Put plainly: Reduction of estrogen receptor mRNA levels in treated MCF-7 human breast tumor cells.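 On Estrogen Receptor mRNA band intensity: Phosphoimager intensity of radioactive mRNA bands.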 Type of data set: cell-based. On the procedure:
as §1

The target of the next data set is T3, MCF-7 estrogen receptor (Homo sapiens, UniProt P03372).
T3 construct: estrogen receptor extracted from MCF-7 human breast tumor cells; endogenous in cells; host or cells: MCF-7 human breast cancer cells (nuclear extract, cytosol or whole cell extract)
T3 sequence (P03372 1-595): T1 sequence (P03372 1-595)
Put plainly: Competitive binding assay, Relative Binding Affinities on binding of estradiol to MCF-7 estrogen receptor. On the procedure:
Briefly, RBAs are determined from competitive binding assays with several concentrations of estradiol (E2) with and without test compound. After 16-18 hours of incubation at 4 degrees C., unbound [^3 H] E2 is separated from ER-bound [^3 H] E2. The IC50 is determined and the RBA is calculated as: […]

Data set [3] concerns MCF-7 human breast tumor cells. Put plainly: Clonigenic assay for MCF-7 human breast tumor cells. As to conditions: for Colonies ± S.D.: 24 hours treatment, grown 22 days. The class given is cell-based. As to the method: MCF-7 cells (10^7) are added to 100 mm tissue culture dishes, allowed to adhere for 24 hours and then treated with either MDL 101,906 or ICI 164,384 for 24 hours. The cells are removed from the dishes with trypsin/EDTA, and washed twice by centrifugation. The cells were counted and 500 cells from each treatment group are added to triplicate wells of 6-well culture dishes. The cells are grown for 22 days. Colonies 1 mm diameter or greater are counted.

In another data set the test system is mouse estrogen receptor. As to conditions: Fawell, S. E., et al. (1990); cited from earlier work.
Setting [4] is: read-out: integrated volume of shifted ERE oligo as percentage of control, given as % inhibition.

As for `CC/C(=C(\c1ccccc1)c1ccc(OCCN(C)C)cc1)c1ccccc1` [tamoxifen], the “patients who do not respond to tamoxifen treatment despite presence of ERs in the malignant tissue” value in data set [1] (Maass, H., et al., Cancer, 46:2783 (1980)) is reported as “About 40%”. The “toxicological problems associated with tamoxifen treatment” value in data set [1] (in vivo) was “tumor flares, vaginal cornification and hypercalciemia”.

By IC50 is commonly meant the concentration needed to halve the response being measured. `CCCCN(C)C(=O)CCCCCCCNC(=O)Cc1c(-c2ccc(O)cc2)n(Cc2ccccc2)c2ccc(O)cc12` [MDL 103,324, 8-[[5-Hydroxy-1-benzyl-2-[(4-hydroxy)-phenyl]-1H-indol-3-yl]-acetylamino]-octanoic acid methyl-butyl-amide]: in the data set on GAPDH mRNA (replicate 1), the “GAPDH mRNA band intensity” value is given as 8,300. Further, the “GAPDH mRNA band intensity” value in the data set with GAPDH mRNA (replicate 2) was 8,118. Further, the IC50 against estrogen receptors was determined as 18 µM. The IC50 in data set [2] was 8.5 µM and 18 µM. In addition, in data set [2] (setting [4]), the inhibition at 2 µM was determined as 60%, the inhibition at 5 µM stood at 68%, the inhibition at 10 µM is 58% and the inhibition at 20 µM was 46%. Besides, the inhibition at 30 µM in data set [2] (setting [4]) came out at 50%. The same molecule had an ER/GAPDH mean in the data set with estrogen receptor mRNA (30 μM, 24 hr, mean of replicates 1 and 2) of 0.74. In the data set with estrogen receptor mRNA (30 μM, 24 hr, replicate 1), the ER/GAPDH came to 0.61 and the “Estrogen Receptor mRNA band intensity” value is 5,128. In the data set on estrogen receptor mRNA (30 μM, 24 hr, replicate 2), the ER/GAPDH came to 0.87 and the “Estrogen Receptor mRNA band intensity” value is reported as 7,077. In the data set on estrogen receptor mRNA (Homo sapiens, MCF7, 24 h, read-out: ER/GAPDH % Control), the activity at 30 µM is 20%. In addition, at MCF-7 estrogen receptor (doses of 100 or 200 nM), the “inhibition of estradiol binding to MCF-7 ER” value was “did not significantly inhibit”. In addition, on MCF-7 estrogen receptor (typically, at doses of 100 or 200 nM), the “inhibition of estradiol binding to MCF-7 ER” value was “less than 10%”.

`CCCCN(C)C(=O)CCCCCCCCCC[C@@H]1Cc2cc(O)ccc2[C@H]2CC[C@]3(C)[C@@H](O)CC[C@H]3[C@H]12` [ICI 164,384, 11-(3-17β-dihydroxyoestra-1,3,-5(10)-trien-7α-yl)-N-n-butyl-N-methylundecanamide, reference compound]: the “Colonies ± S.D.” value in data set [3] (0.1 μM) amounted to 48 ± 6; in data set [3] (1.0 μM) it was 40 ± 2. The activity at 0.1 µM in data set [3] (Homo sapiens, MCF7, 528 h, 0.1 μM, read-out: Colonies, % Control) is 145%. Further, the activity at 1 µM in data set [3] (Homo sapiens, MCF7, 528 h, 1.0 μM, read-out: Colonies, % Control) worked out at 121%. Moreover, in the data set on mouse estrogen receptor, the “inhibition of DNA binding of the mouse estrogen receptor” value is “inhibit DNA binding of the mouse estrogen receptor by interfering with receptor dimerization”.
